Series [1] can be described thus: Stabilization of various xanthates by methyl-beta-cyclodextrin at 60° C. (decomposition in water, detected by pH value and calibration curves). Particulars: 24 h at 60° C.; for % Decomposition − Cyclodextrin / % Decomposition + Cyclodextrin: 10 mg/ml xanthate in water; for % Decomposition − Cyclodextrin: absence of cyclodextrin; for % Decomposition + Cyclodextrin: presence of 100 mg/ml methyl-beta-cyclodextrin; for Stabilization factor: decomposition without / with methyl-beta-cyclodextrin. The method, then:
Solutions each containing 10 mg/ml methylxanthate, propylxanthate, butylxanthate, heptyixanthate, hexylxanthate, decylxanthate, isopropylxanthate, or tricyclo[5,2,1,0^2,6]-decylxanthate (D 609) in water were incubated for 24 h at 60° C. either in the presence or absence of 100 mg/ml methyl-beta-cyclodextrin. Xanthates decompose in aqueous medium into the corresponding alcohol, CS2, and, depending on the type of xanthate salt, KOH or NaOH. The decomposition of xanthates can therefore be detected quantitatively by measuring the pH value and using calibration curves.

The subject of series [2] is erythrocytes. Nature of the series: Hemolytic effect of xanthates (OD 450 of supernatants of diluted blood). As to conditions: for 50% hemolysis (IC50): 30 minutes at room temperature. As for the experimental part: Venous blood was taken from female Balb C mice by retroorbital puncture and heparin was added to the blood. The blood was then diluted 1:75 using phosphate-buffered saline. Methyl-, butyl, and hexylxanthate as well as exo/exo D 609 were dissolved in phosphate-buffered saline (stock solution 10 mg/ml). 100 μl diluted blood and 100 μl diluted xanthate solution each were placed in 96-well microtiter plates to obtain final concentrations of 2, 1, 0.5, 0.25, 0.125, 0.063, and 0.031 mg/ml of xanthate. Saline served as the control. After incubation at room temperature for 30 minutes, a centrifugation at 5,000 g for 5 min was performed and the supernatants were removed. The absorption of the supernatants at 450 nm (OD 450) was measured using an ELISA-Reader. Dose-response curves (FIGS. 2 and 3) were used to determine the concentrations at which 50% of the maximal absorption was reached and at which, therefore, 50% of the erythrocytes were lysed (IC50).

A short description of series [3]: Stabilization of exo/exo D 609 by cyclodextrin at room temperature (decomposition in water, pH after 45 days). It is filed as physicochemical. As to conditions: for decomposition / pH value of the solution: after 45 days. The method, then:
The xanthate, D 609, decomposes in aqueous solutions to form the tricyclodecanol, CS2, and KOH. […] The pH value of the individual solutions was determined after 45 days using PANPEHA strips (Schleicher & Schüll). […] The pH value of the solution containing cyclodextrin was measured to be 7.0. This corresponds to <0.1% decomposition. Accordingly, the rate of decomposition is at least 1000-fold lower in the presence of cyclodextrin.

Series [4] concerns female Balb C mice. Nature of the series: Toxicity after intravenous application (survival 48 h after injection into the lateral tail vein). It is filed as in vivo. As to conditions: for Animals receiving injections/surviving animals: 48 h. As for the experimental part: The exo/exo isomer of D 609 or hexylxanthate were dissolved in 0.9% NaCl or 0.9% NaCl/30% hydroxy-beta-cyclodextrin at a concentration of 30 mg/ml. Subsequently, dilutions were prepared using 0.9% NaCl solution to obtain concentrations of 30, 20, 10, and 5 mg/ml D 609 or hexylxanthate. Three female Balb C mice each received injections of 0.2 ml/20 g body weight of each solutions into the lateral tail vein. The animals were monitored for 48 h after injection and survival was recorded.

The test system of series [5] is DNA and RNA virus species; tumor cells. As to conditions: from literature and U.S. Pat. No. 4,602,037; cited from earlier work.
Series [6] has as its system models of Alzheimer's disease. Particulars: from literature; cited from earlier work.
In series [7] the test system is multiple sclerosis model. Particulars: from literature; cited from earlier work.
The subject of series [8] is animal model of stroke. As to conditions: from literature; cited from earlier work.
The test system of series [9] is lung edemas. As to conditions: from literature; cited from earlier work.
Series [10] relates to HSV-1, strain Angelotti. Nature of the series: Antiviral efficacy, plaque number in Calu-6 cells infected with HSV-1. The format is cell-based. Particulars: addition of cyclodextrin 1:1 or 1:2 to D609, Calu-6 cells, 72 h. The method, then: Human lung carcinoma cells (Calu-6) in D-MEM medium (supplemented with 10% fetal calf serum) were seeded in 24-well plates (Greiner) (3×10^6 cells/plate each). After incubation for 24 h at 37° C. in a 5% CO2 atmosphere, the medium was decanted and 0.1 ml viral suspension (HSV-1, strain Angelotti, 200 plaque-forming units/ml) were added. After incubation at 37° C. for one hour, fresh medium (DMEM, 10% serum, 0.85 g NaHCO3/I) containing D609 (exo/exo isomer) or a mixture of D609 and beta-hydroxypropyl-cyclodextrin (b-HP) (Sigma, Munich, No 33, 260-7) was added.
The following concentrations were set-up:
After 72 h, the medium was decanted and the plates were fixed with 3% formalin and stained with 0.5% crystal violet. After the plates were dried, the number of plaques per well was determined and the means±standard deviation were calculated. The results (dose-response curves) are plotted in FIG. 4. […] Accordingly, the addition of beta-hydroxypropyl-cyclodextrin has no influence on the antiviral activity of D609.

A short description of series [11]: Stabilization effect of different cyclodextrins on D 609 at 60° C. (RP-18 thin layer plate). The format is physicochemical. As to conditions: exo/exo D 609 with cyclodextrin, eight days at 60° C., TLC spots under UV (FIG. 1). As for the experimental part:
Exo/exo D 609 was dissolved in solutions (100 mg/ml) containing various cyclodextrins (10 mg/ml). The samples were incubated for eight days at 60° C. 10 μl of each sample were diluted with 90 μl of water and 100 μl ethylacetate/3 mg/ml p-bromoacetophenone were added. After shaking for 30 minutes, 5 μl of the ethylacetate phase each were applied to a RP-18 thin layer plate and the plate was placed for 15 minutes in a TLC chamber containing acetonitrile as mobile phase. A freshly prepared solution of 9 mg/ml D 609 plus 1 mg/ml of a D 609 solution that had been incubated at 95° C. for 48 h (decomposition control) was used as calibration sample. The D 609-specific spots were visualized under UV light and photographed.

The mark [12] stands for this setting: 10 mg/ml in water with 100 mg/ml cyclodextrin.
The mark [13] stands for this setting: in the presence of cyclodextrin.
[14] abbreviates: xanthate alone (absence of cyclodextrin).

These results are taken from patent publication US8435966B2, “Associations of xanthogenates and cyclodextrins, and their use” (Biosphings AG, priority 2006, dated 2013).

Where two headings read alike, the source gives them in different places.

In general, LD50 refers to the dose expected to kill half of the subjects tested.

For the compound `CCCCOC(=S)S` [Butyl, butylxanthate], in [1], the “% Decomposition − Cyclodextrin” value turned out to be 20%, the “% Decomposition + Cyclodextrin” value came out at 1% and the Stabilization factor turned out to be 20. In addition, the “hemolytic effect / dose-response curves in the presence versus absence of cyclodextrin” value in [2] (FIGS. 2 and 3) is on record as “no significant differences”. In [2] (absence of cyclodextrin), the “concentration of complete hemolysis” value was 1000 µg/mL and the “50% hemolysis (IC50)” value was 800 µg/mL. For the same compound, in series [2] (presence of cyclodextrin), the “concentration of complete hemolysis” value was 1000 µg/mL and the “50% hemolysis (IC50)” value stood at 650 µg/mL.
Turning to `S=C([S-])OC1CC2CC1C1CCCC21.[K+]` (stereo not drawn) [D 609], the “% Decomposition − Cyclodextrin” value in [1] is 20%. In series [1], the “% Decomposition + Cyclodextrin” value is 1%. The decomposition result is given as “complete decomposition” in series [3] (10 mg/ml in pure water) and under 0.1% in [3] (setting [12]). Besides, the “pH value of the solution” value is on record as 12.5 in series [3] (10 mg/ml in pure water) and 7.0 in series [3] (setting [12]). Further, in series [3] (45 days, with versus without cyclodextrin), the “rate of decomposition lower in the presence of cyclodextrin” value is recorded as “at least 1000 fold”. Further, the “Animals receiving injections/surviving animals” value in [4] (Dose 50 mg/kg) is recorded as 3/3; in series [4] (Dose 100 mg/kg) it was 3/0; in series [4] (Dose 200 mg/kg), 3/0; in series [4] (Dose 300 mg/kg) it was 3/0. For the same compound, the “number of surviving animals, effect of cyclodextrin” value in series [4] (at the higher D 609-doses) is given as “clearly increased”. In addition, the LD50 in [4] (setting [13]) is 250 mg/kg; in [4] (setting [14]) it was 75 mg/kg. The “concentration of complete hemolysis” value in series [2] turned out to be 500 µg/mL. In addition, the “hemolytic effect / dose-response curves in the presence versus absence of cyclodextrin” value in [2] was “reduced strongly”. The “increase of the IC50 by a factor” value in series [2] turned out to be 6.4. Further, the “50% hemolysis (IC50)” value was determined as 125 µg/mL in [2] (absence of cyclodextrin) and 800 µg/mL in series [2] (presence of cyclodextrin). Moreover, in series [5], the known activity entry was “antiviral and antitumoral activity”. For the same compound, the “effect in models of Alzheimer's disease” value in series [6] was “protective properties”. Besides, in series [7], the “effect in a multiple sclerosis model” value was “protective effect”. The “effect in an animal model of stroke” value in series [8] is “protective effect”. For the same compound, the “effect on lung edemas” value in [9] is reported as “protection from lung edemas”.
Take `CCCCCCCCCCOC(=S)S` [Decyl, decylxanthate]: in series [1], the “% Decomposition − Cyclodextrin” value was found to be 10% and the “% Decomposition + Cyclodextrin” value was found to be 1%.
As to `CCOC(=S)S` [Ethyl], in series [1], the “% Decomposition − Cyclodextrin” value is reported as 10%, the “% Decomposition + Cyclodextrin” value stood at 1% and the Stabilization factor stood at 10.
Take `CCCCCCOC(=S)S` [Hexylxanthate, hexylxanthate]: the “% Decomposition − Cyclodextrin” value in series [1] was found to be 20%. Also, in [1], the “% Decomposition + Cyclodextrin” value is on record as 1%. For the same compound, the “Animals receiving injections/surviving animals” value in series [4] (Dose 50 mg/kg) was 3/3; in series [4] (Dose 100 mg/kg), 3/2; in series [4] (Dose 200 mg/kg), 3/0; in series [4] (Dose 300 mg/kg) it was 3/0. The LD50 in series [4] (setting [13]) and in series [4] (setting [14]) was 130 mg/kg throughout. Further, the “concentration of complete hemolysis” value in series [2] came out at 500 µg/mL. The “hemolytic effect / dose-response curves in the presence versus absence of cyclodextrin” value in series [2] is given as “reduced strongly”. The “increase of the IC50 by a factor” value in series [2] came to 2.5. For the same compound, the results for the “50% hemolysis (IC50)” value in [2] (absence of cyclodextrin) and in series [2] (presence of cyclodextrin) were 300 µg/mL and 750 µg/mL, respectively.
Turning to `CC(C)OC(=S)S` [Isopropyl, isopropylxanthate], in series [1], the “% Decomposition − Cyclodextrin” value is listed as 20%, the “% Decomposition + Cyclodextrin” value is 1% and the Stabilization factor is listed as 20.
Take `COC(=S)S` [Methyl, methylxanthate]: in series [1], the “% Decomposition − Cyclodextrin” value is 50%, the “% Decomposition + Cyclodextrin” value came to 1% and the Stabilization factor was determined as 50. In addition, the “hemolytic effect / dose-response curves in the presence versus absence of cyclodextrin” value in series [2] (FIGS. 2 and 3) is on record as “no significant differences”. In addition, in series [2] (absence of cyclodextrin), the “concentration of complete hemolysis” value amounted to 1000 µg/mL and the “50% hemolysis (IC50)” value amounted to 600 µg/mL. In addition, in [2] (presence of cyclodextrin), the “concentration of complete hemolysis” value was 1000 µg/mL and the “50% hemolysis (IC50)” value amounted to 650 µg/mL.
For `CCCOC(=S)S` [Propyl, propylxanthate], in series [1], the “% Decomposition − Cyclodextrin” value is 20%, the “% Decomposition + Cyclodextrin” value was 2% and the Stabilization factor worked out at 10.
Take beta-hydroxypropyl-cyclodextrin: the “influence on the antiviral activity of D609” value in series [10] is “no influence”.
Turning to methyl-beta-cyclodextrin, the “protective effect from decomposition of D 609” value in series [11] is “works the best by far”.
